In ChEMBL document CHEMBL2163263, “Mechanism inspired development of rationally designed dihydrofolate reductase inhibitors as anticancer agents” (J Med Chem, 2012):
The source made the active and inactive calls. The rule behind the calls is not given here.

What was measured:
[1] = Therapeutic index, ratio of LC50 for human NCI60 cells to GI50 for human NCI60 cells; format: cell-based; settings: read-out: TI
[2] = (§1) Growth inhibition of human NCI60 cells incubated for 48 hrs by SRB assay; format: functional; settings: NCI60, 48 h
[3] = target: T1, Dihydrofolate reductase (Homo sapiens) (UniProt P00374); assay: Binding affinity to DHFR by [1H]NMR spectroscopy
T1 sequence (whole entry): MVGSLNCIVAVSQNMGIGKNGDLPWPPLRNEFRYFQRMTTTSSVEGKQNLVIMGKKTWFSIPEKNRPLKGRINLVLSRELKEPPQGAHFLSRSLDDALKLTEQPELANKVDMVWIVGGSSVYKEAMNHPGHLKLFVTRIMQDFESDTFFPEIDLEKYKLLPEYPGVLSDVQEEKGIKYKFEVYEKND

[4] = Total tumor growth inhibition of human NCI60 cells incubated for 48 hrs by SRB assay; format: functional; settings: NCI60, 48 h
[5] = target: T1, Dihydrofolate reductase (Homo sapiens); assay: Binding affinity to DHFR assessed as change in UV-Vis spectra at 10 uM in HEPES buffer at pH 7.2 by UV-Visible spectroscopy
[6] = Toxicity against human NCI60 cells incubated for 48 hrs by SRB assay; format: cell-based; settings: nci60, 48 h
[7] = tested on: COLO 205; assay: Growth inhibition of human COLO205 cells incubated for 48 hrs by SRB assay; format: functional; settings: COLO 205, 48 h, pooled result: one value given for 7 cell lines, strains, targets or settings
[8] = target: T1, Dihydrofolate reductase (Homo sapiens)
Description: Inhibition of DHFR reduction in conversion of DHF to THF in presence of NADPH by DHFR assay

[9] = tested on: NCI60; assay: as §1; format: functional
[10] = target: T1, Dihydrofolate reductase (Homo sapiens); assay: Inhibition of DHFR reduction in conversion of DHF to THF at 100 uM in presence of NADPH by DHFR assay
[11] = target: T1, Dihydrofolate reductase (Homo sapiens); assay: Inhibition of DHFR reduction in conversion of DHF to THF at 10 uM in presence of NADPH by DHFR assay
[12] = tested on: MDA-MB-468; assay: Growth inhibition of human MDA-MB-468 cells incubated for 48 hrs by SRB assay; format: functional; settings: MDA-MB-468, 48 h
[13] = tested on: A498; assay: Growth inhibition of human A498 cells incubated for 48 hrs by SRB assay; format: functional; settings: A498, 48 h
[14] = target: Thymidylate synthase (Homo sapiens) (UniProt P04818); assay: Binding affinity to thymidylate synthase assessed as change in UV-Vis spectra at 10 uM in HEPES buffer at pH 7.2 by UV-Visible spectroscopy
Sequence of Thymidylate synthase (Homo sapiens) (P04818 2-313 limits assumed): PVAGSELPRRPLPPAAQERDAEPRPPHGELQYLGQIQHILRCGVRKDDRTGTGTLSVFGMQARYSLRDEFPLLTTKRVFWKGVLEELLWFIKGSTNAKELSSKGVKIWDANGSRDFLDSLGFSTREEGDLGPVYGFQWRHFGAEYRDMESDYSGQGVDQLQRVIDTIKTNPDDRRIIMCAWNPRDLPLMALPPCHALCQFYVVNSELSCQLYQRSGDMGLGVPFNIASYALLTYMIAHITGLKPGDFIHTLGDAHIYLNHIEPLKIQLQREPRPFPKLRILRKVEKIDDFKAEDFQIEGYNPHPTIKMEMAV

[15] = target: Thymidine phosphorylase (Homo sapiens) (UniProt P19971); assay: Binding affinity to […] assessed as change in UV-Vis spectra at 10 uM in HEPES buffer at pH 7.2 by UV-Visible spectroscopy
Sequence of Thymidine phosphorylase (Homo sapiens) (P19971 whole entry, looked up): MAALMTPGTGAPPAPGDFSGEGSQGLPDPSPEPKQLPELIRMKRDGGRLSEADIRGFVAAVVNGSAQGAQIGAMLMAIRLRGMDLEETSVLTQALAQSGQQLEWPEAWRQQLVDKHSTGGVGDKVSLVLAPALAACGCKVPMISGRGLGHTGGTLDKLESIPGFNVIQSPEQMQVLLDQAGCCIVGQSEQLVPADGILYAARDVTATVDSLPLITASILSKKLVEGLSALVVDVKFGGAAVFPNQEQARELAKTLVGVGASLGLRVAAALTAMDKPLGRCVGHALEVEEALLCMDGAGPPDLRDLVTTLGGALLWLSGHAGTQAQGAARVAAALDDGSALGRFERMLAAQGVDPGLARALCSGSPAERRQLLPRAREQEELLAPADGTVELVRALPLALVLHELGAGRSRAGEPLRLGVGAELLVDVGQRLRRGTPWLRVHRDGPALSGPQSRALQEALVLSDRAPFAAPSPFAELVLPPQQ

[16] = target: T1, Dihydrofolate reductase (Homo sapiens); assay: Inhibition of DHFR reduction in conversion of DHF to THF at 1 uM in presence of NADPH by DHFR assay
[17] = tested on: NCI-H522; assay: Growth inhibition of human NCI-H522 cells incubated for 48 hrs by SRB assay; format: functional; settings: NCI-H522, 48 h
[18] = tested on: SR; assay: Growth inhibition of human SR cells incubated for 48 hrs by SRB assay; format: functional
[19] = cells; settings: Homo sapiens, NCI60, 48 h
[20] = tested on: MCF7; assay: Growth inhibition of human MCF7 cells incubated for 48 hrs by SRB assay; format: functional; settings: MCF7, 48 h
[21] = tested on: OVCAR-3; assay: Growth inhibition of human OVCAR3 cells incubated for 48 hrs by SRB assay; format: functional; settings: OVCAR-3, 48 h
[22] = tested on: UACC-257; assay: Growth inhibition of human UACC257 cells incubated for 48 hrs by SRB assay; format: functional; settings: UACC-257, 48 h
[23] = target: T1, Dihydrofolate reductase (Homo sapiens); assay: Inhibition of DHFR reduction in conversion of DHF to THF at 100 nM in presence of NADPH by DHFR assay
[24] = target: T1, Dihydrofolate reductase (Homo sapiens); assay: Binding affinity to DHFR at 48 mM by [1H]NMR spectroscopy
[25] = target: T1, Dihydrofolate reductase (Homo sapiens); assay: Inhibition of DHFR reduction in conversion of DHF to THF at 10 nM in presence of NADPH by DHFR assay
[26] = tested on: Hs-578T; assay: Growth inhibition of human Hs578T cells incubated for 48 hrs by SRB assay; format: functional
[27] = target: T1, Dihydrofolate reductase (Homo sapiens); assay: Binding affinity to DHFR at 32 mM by [1H]NMR spectroscopy

Compound | selectivity ratio [1] | GI50 [2] [nM] | Activity [3] | TGI [4] [nM] | Activity [5] | LC50 [6] [nM] | IC80 [8] [nM] | other results
CC1=NN(c2cccc(Cl)c2)C(=O)/C1=C\c1cn(CC(O)CN2CCCCC2)c2ccccc12 (centres undefined) | 18.4 | 5500 | Active | 16900 | inactive | 47800 | 1060 | GI50 [7]: 1700 nM
COc1cc(C=C2C(=O)N(C)C(=O)N(C)C2=O)cc(OC)c1O | – | – | inactive | – | inactive | – | – | growth inhibition (GI) [9]: inactive
CC1=NN(c2cccc(Cl)c2)C(=O)/C1=C\c1c[nH]c2ccc(Br)cc12 | 12.8 | 3900 | Active | 17700 | inactive | 50100 | – | –
COc1cc(/C=C2\C(=O)Nc3ccccc32)cc(OC)c1O | – | 3500 | – | 21400 | – | 72400 | – | inhibition [10]: > 90%; inhibition [11]: > 90%; GI50 [12]: 600 nM; GI50 [13]: 600 nM; Activity [14]: inactive; Activity [15]: inactive; inhibition [16]: > 90%; GI50 [17]: 600 nM; GI50 [18]: 600 nM; IC90 [8]: 1360 nM; GI50 [19]: 600 nM; GI50 [20]: 600 nM; GI50 [21]: 600 nM; GI50 [22]: 600 nM; inhibition [23]: > 90%; Activity [24]: Active; inhibition [25]: > 90%; GI50 [26]: 600 nM
O=C1/C(=C\c2ccccn2)c2ccccc2N1c1c(Cl)cccc1Cl | 13.7 | 2000 | Active | 9100 | inactive | 27500 | – | –
COc1ccc2c(c1)c(CC(=O)O)c(C)n2C(=O)c1ccc(Cl)cc1 [INDOMETHACIN] | – | 64300 | – | – | – | – | – | –
O=C1/C(=C\c2cn(CC(O)CN3CCCCC3)c3ccccc23)c2ccccc2N1c1c(Cl)cccc1Cl (centres undefined) | 5.1 | 1800 | Active | 3200 | inactive | 9100 | 890 | –
COc1cc(/C=C2\C(=O)N(c3cccc(Cl)c3)N=C2C)cc(OC)c1O | – | – | inactive | – | inactive | – | – | growth inhibition (GI) [9]: inactive
COc1cc(/C=C2\C(=O)N(c3c(Cl)cccc3Cl)c3ccccc32)cc(OC)c1O | 41.1 | 1500 | – | 19400 | – | 61600 | 10000 | Activity [27]: Active; Activity [14]: inactive; Activity [15]: inactive; K [5]: 1.6 ×10⁷ /M
